Each compound was assayed on full-length human prolyl-4-hydroxylase domain (PHD) enzymes, PHD1 and PHD2 (assay: TR-FRET assay, selectivity of compounds for PHD1 over PHD2 (ratio of Kis calculated from IC50s)). Settings: ratio of Kis (PHD2 Ki/PHD1 Ki), Kis calculated from TR-FRET IC50s by Cheng Prussoff equation; 1 uM 2-OG.
Format: biochemical
Source text: Time-resolved fluorescence resonance energy transfer (TR-FRET) assay was utilized to determine the enzymatic half maximal inhibitory concentration (IC50) value of PHD inhibitors against the full-length human prolyl-4-hydroxylase domain (PHD) enzymes, PHD1 and PHD2. The TR-FRET assay was developed based on the specific binding of hydroxylated HIF-la peptide with the complex formed by VHL, EloB and EloC (VBC), to generate a fluorescent signal. Terbium (Tb)-Donor (monoclonal antibody anti-6His-Tb-cryptate Gold) and D2-acceptor (streptavidin [SA]-D2) of TR-FRET are linked to the VBC complex and to HIF-1α peptide, respectively. The VBC complex binds specifically to the HIF-1α peptide when it is hydroxylated, allowing energy transfer from TR-FRET donor to acceptor (FIG. 1).
TR-FRET Reagents. Monoclonal antibody anti-6His-Tb-cryptate Gold (catalog #61HI2TLA) and streptavidin (SA)-D2 (catalog #610SADLA) were purchased from CisBio International (Bedford, MA, USA).
N-terminus biotinylated HIF-1α C35 synthetic peptide representing amino acids 547 to 581 and including the proline 564 PHD2 hydroxylation site was purchased from California Peptide Research (Salt Lake City, UT, USA).
VBC Complex. His-tagged recombinant VHL protein, EloB, EloC complex (His-VBC) was supplied by Axxam (Milan, Italy). Recombinant human VHL (National Center for Biotechnology Information [NCBI] accession number NP_00542.1) contained a His tag at the C-terminus of amino acids 55 to 213 and is referred to as VHL-His. VHL-His was co-expressed in E. coli with full-length human EloB (NCBI accession number Q15370.1) and full-length human EloC (NCBI accession number Q15369.1) and purified by affinity chromatography on a nickel-nitrilotriacetic acid (Ni-NTA) column as the His-VBC complex. Purity (˜80%) was assessed by sodium dodecyl sulfate polyacrylamide gel electrophoresis (SDS-PAGE).
PHD1. Recombinant human PHD1 protein (catalog #81064, Lot #24717001) was purchased from Active Motif (Carlsbad, CA, USA). PHD1 was expressed in a baculovirus expression system as the full-length protein (NCBI accession number NP_542770.2) with an N-terminal FLAG tag (molecular weight 44.9 kDa). Purity (>90%) was assessed by SDS-PAGE.
PHD2. The full-length human PHD2 enzyme was produced with a baculovirus infected insect cell (BIIC) expression system by Beryllium (Bedford, MA, USA). The PHD2 construct contained amino acids 1 to 426 of PHD2 (UniProt Knowledgebase[UniProtKB]/Swiss-Prot accession number Q9GZT9.1), and a His tag and a Tobacco Etch Virus (TEV) protease cleavage site at the N-terminus. The construct was expressed in Sf9 insect cells, purified by Ni-NTA column and digested with TEV protease to remove the His tag.
Compounds were preincubated with PHD enzyme in a 10 μL reaction volume in white 384-well Optiplate microplates (catalog #6007290, Perkin Elmer, Waltham, MA, USA). For this, 5 μL compound was serially diluted with dilution buffer (50 mM HEPES [4-(2-hydroxyethyl)-1-piperazineethanesulfonic acid] pH 7.5, 50 mM sodium chloride [NaCl], 0.01% Tween-20, 0.01% purified bovine serum albumin [BSA]) and mixed with 5 μL PHD enzyme mix prepared as a 4× concentrate in the dilution buffer containing PHD enzyme (60 nM PHD1, 20 nM PHD2, 140 nM PHD3), 40 μM ferrous ammonium sulfate (FAS), 4 mM sodium (Na) ascorbate. The plates were incubated for 30 minutes at room temperature without rotation.
Five microliters of the VBC/anti-6His-Tb-cryptate Gold mix prepared as a 4× concentrate in dilution buffer containing 20 nM His-VBC, 1.32 nM monoclonal antibody anti-6His-Tb-cryptate Gold was then added. This step was followed immediately by the addition of 5 μL of the HIF-1α C35 substrate mix prepared as a 4× concentrate in the dilution buffer containing 120 nM biotin-labeled HIF-1α C35, 132 nM SA-D2, 4 μM 2-oxoglutarate (2-OG) to reach a final reaction volume of 20 μL. […]

| Structure (SMILES) | Selectivity of PHD1 over PHD2 [fold] |
| --- | --- |
| CC(C)(CC(=O)O)NC(=O)c1ncc(-c2cccc(Cl)c2)cc1O [compound 1, 3-(5-(3-chlorophenyl)-3-hydroxypicolinamido)-3-methylbutanoic acid] | ~14 |
| C[C@@H](CC(=O)O)NC(=O)c1ncc(-c2cccc(Cl)c2)cc1O [compound 2, (S)-3-(5-(3-chlorophenyl)-3-hydroxypicolinamido)butanoic acid] | ~16 |
| C[C@H](CC(=O)O)NC(=O)c1ncc(-c2cccc(Cl)c2)cc1O [compound 3, (R)-3-(5-(3-chlorophenyl)-3-hydroxypicolinamido)butanoic acid] | ~17 |
| CC(C)(CNC(=O)c1ncc(-c2cccc(Cl)c2)cc1O)C(=O)O [compound 4, 3-(5-(3-chlorophenyl)-3-hydroxypicolinamido)-2,2-dimethylpropanoic acid] | ~1187 |
| O=C(O)CCNC(=O)c1ncc(-c2cccc(Cl)c2)cc1O [compound 5, 3-(5-(3-chlorophenyl)-3-hydroxypicolinamido)propanoic acid] | ~12 |
| CC(C)(CNC(=O)c1ncc(-c2cnn(-c3ccccc3)c2)cc1O)C(=O)O [compound 6, 3-(3-Hydroxy-5-(1-phenyl-1H-pyrazol-4-yl)picolinamido)-2,2-dimethylpropanoic acid] | ~249 |
| CCCn1cc(-c2cnc(C(=O)NCC(C)(C)C(=O)O)c(O)c2)cn1 [compound 7, 3-(3-hydroxy-5-(1-propyl-1H-pyrazol-4-yl)picolinamido)-2,2-dimethylpropanoic acid] | ~503 |
| CC(C)(CNC(=O)c1ncc(-c2cccc(Oc3ccccc3)c2)cc1O)C(=O)O [compound 8, 3-(3-hydroxy-5-(3-phenoxyphenyl)picolinamido)-2,2-dimethylpropanoic acid] | ~219 |
| CC(C)(CNC(=O)c1ncc(-c2cccc(-c3ccccc3)c2)cc1O)C(=O)O [compound 9, 3-(5-([1,1′-biphenyl]-3-yl)-3-hydroxypicolinamido)-2,2-dimethylpropanoic acid] | ~189 |
| CC(C)(CNC(=O)c1ncc(-c2cccc(CN3CCCC3)c2)cc1O)C(=O)O [compound 10, 3-(3-hydroxy-5-(3-(pyrrolidin-1-ylmethyl)phenyl)picolinamido)-2,2-dimethylpropanoic acid] | ~95 |
| CC(C)(CNC(=O)c1ncc(-c2cccc(COc3cccc(Cl)c3)c2)cc1O)C(=O)O [compound 11, 3-(5-(3-((3-chlorophenoxy)methyl)phenyl)-3-hydroxypicolinamido)-2,2-dimethylpropanoic acid] | ~50 |
| CC(C)(CNC(=O)c1ncc(-c2cccc(OCC3CC3)c2)cc1O)C(=O)O [compound 12, 3-(5-(3-(cyclopropylmethoxy)phenyl)-3-hydroxypicolinamido)-2,2-dimethylpropanoic acid] | ~1984 |
| COCCc1ccc(OCc2cccc(-c3cnc(C(=O)NCC(C)(C)C(=O)O)c(O)c3)c2)cc1 [compound 13, 3-(3-hydroxy-5-(3-((4-(2-methoxyethyl)phenoxy)methyl)phenyl)picolinamido)-2,2-dimethylpropanoic acid] | ~6 |
| Cc1ncc(-c2cnc(C(=O)NCC(C)(C)C(=O)O)c(O)c2)s1 [compound 14, 3-(3-hydroxy-5-(2-methylthiazol-5-yl)picolinamido)-2,2-dimethylpropanoic acid] | ~15 |
| CC(C)(CNC(=O)c1ncc(-c2cccc(-c3cccnc3)c2)cc1O)C(=O)O [compound 15, 3-(3-hydroxy-5-(3-(pyridin-3-yl)phenyl)picolinamido)-2,2-dimethylpropanoic acid] | ~125 |
| CC(C)(CNC(=O)c1ncc(-c2cccc(COc3ccc(OC(F)(F)F)cc3)c2)cc1O)C(=O)O [compound 16, 3-(3-hydroxy-5-(3-((4-(trifluoromethoxy)phenoxy)methyl)phenyl)picolinamido)-2,2-dimethylpropanoic acid] | ~53 |
| CC(C)(CNC(=O)c1ncc(-c2ccc3ccccc3c2)cc1O)C(=O)O [compound 17, 3-(3-hydroxy-5-(naphthalen-2-yl)picolinamido)-2,2-dimethylpropanoic acid] | ~1031 |
| CC(C)(CNC(=O)c1ncc(-c2cccc(COc3cccc4ccccc34)c2)cc1O)C(=O)O [compound 18, 3-(3-hydroxy-5-(3-((naphthalen-1-yloxy)methyl)phenyl)picolinamido)-2,2-dimethylpropanoic acid] | ~885 |
| CC(C)(CNC(=O)c1ncc(-c2cnn(CCN3CCOCC3)c2)cc1O)C(=O)O [compound 19, 3-(3-hydroxy-5-(1-(2-morpholinoethyl)-1H-pyrazol-4-yl)picolinamido)-2,2-dimethylpropanoic acid] | ~495 |
| CC(C)(CNC(=O)c1ncc(-c2cccc3ccccc23)cc1O)C(=O)O [compound 20, 3-(3-hydroxy-5-(naphthalen-1-yl)picolinamido)-2,2-dimethylpropanoic acid] | ~159 |
| CC(C)(CNC(=O)c1ncc(-c2cccc(O)c2)cc1O)C(=O)O [compound 21, 3-(3-hydroxy-5-(3-hydroxyphenyl)picolinamido)-2,2-dimethylpropanoic acid] | ~1494 |
| CC(C)(CNC(=O)c1ncc(-c2cccc(OCc3ccc(Cl)cc3)c2)cc1O)C(=O)O [compound 22, 3-(5-(3-((4-chlorobenzyl)oxy)phenyl)-3-hydroxypicolinamido)-2,2-dimethylpropanoic acid] | ~261 |
| CC(C)(CNC(=O)c1ncc(-c2ccc3cc(O)ccc3c2)cc1O)C(=O)O [compound 23, 3-(3-hydroxy-5-(6-hydroxynaphthalen-2-yl)picolinamido)-2,2-dimethylpropanoic acid] | ~113 |
| CC(C)(CNC(=O)c1ncc(-c2cccc(Oc3ccc(Cl)cc3)c2)cc1O)C(=O)O [compound 24, 3-(5-(3-(4-chlorophenoxy)phenyl)-3-hydroxypicolinamido)-2,2-dimethylpropanoic acid] | ~181 |
| CC(C)(CNC(=O)c1ncc(-c2cccc(Nc3ccc(Cl)cc3)c2)cc1O)C(=O)O [compound 25, 3-(5-(3-((4-chlorophenyl)amino)phenyl)-3-hydroxypicolinamido)-2,2-dimethylpropanoic acid] | ~213 |
| CC(C)(CNC(=O)c1ncc(-c2ccc3cc(Oc4ccc(Cl)cc4)ccc3c2)cc1O)C(=O)O [compound 26, 3-(5-(6-(4-chlorophenoxy)naphthalen-2-yl)-3-hydroxypicolinamido)-2,2-dimethylpropanoic acid] | ~31 |
